In patent US7265109B2, “Thiazole derivatives” (Hoffmann-La Roche Inc., priority 2003, dated 2007):

Molecular target: T1, recombinant mouse NPY5-receptor (mNPY5) (Mus musculus, UniProt O70342)
T1 construct: The full-length cDNA encoding the mouse NPY5 (mNPY5) receptor was amplified from mouse brain cDNA; expressed in transfected cells; membrane preparation
T1 sequence (O70342 1-466): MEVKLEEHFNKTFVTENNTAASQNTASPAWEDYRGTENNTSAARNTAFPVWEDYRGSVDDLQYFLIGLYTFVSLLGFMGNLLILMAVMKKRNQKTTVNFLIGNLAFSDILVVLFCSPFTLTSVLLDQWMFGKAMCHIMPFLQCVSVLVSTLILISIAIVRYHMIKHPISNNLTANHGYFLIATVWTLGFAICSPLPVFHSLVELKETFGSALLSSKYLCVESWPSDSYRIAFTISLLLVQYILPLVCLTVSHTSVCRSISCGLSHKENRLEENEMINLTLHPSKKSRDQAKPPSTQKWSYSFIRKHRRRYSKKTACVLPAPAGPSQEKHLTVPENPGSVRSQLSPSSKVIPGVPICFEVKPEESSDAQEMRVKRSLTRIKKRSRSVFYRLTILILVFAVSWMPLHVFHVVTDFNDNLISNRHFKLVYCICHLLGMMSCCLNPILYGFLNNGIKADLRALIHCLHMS
Experiment: Radioligand competition binding
Details: membranes of HEK293 cells expressing mNPY5; 100 pM [125I]labelled peptide YY (PYY); 1 h at 22° C.; read-out: NPY5-R (mouse) IC50
Description: The full-length cDNA encoding the mouse NPY5 (mNPY5) receptor was amplified from mouse brain cDNA using specific primers, designed based on the published sequence, and Pfu DNA-Polymerase. The amplification product was subcloned into the mammalian expression vector pcDNA3 using Eco RI and XhoI restriction sites. Positive clones were sequenced and one clone, encoding the published sequence was selected for generation of stable cell clones.
Human embryonic kidney 293 (HEK293) cells were transfected with 10 μg mNPY5 DNA using the lipofectamine reagent. Two days after transfection, geneticin selection (1 mg/ml) was initiated and several stable clones were isolated. One clone was further used for pharmacological characterization.
Human embryonic kidney 293 cells (HEK293), expressing recombinant mouse NPY5-receptor (mNPY5) were broken by three freeze/thawing cycles in hypotonic Tris buffer (5 mM, pH 7.4, 1 mM MgCl2), homogenized and centrifuged at 72,000×g for 15 min. The pellet was washed twice with 75 mM Tris buffer, pH 7.4, containing 25 mM MgCl2 and 250 mM sucrose, 0.1 mM phenylmethylsulfonylfluoride and 0.1 mM 1,10-pheneanthrolin, resuspended in the same buffer and stored in aliquots at −80° C. Protein was determined according to the method of Lowry using bovine serum albumine (BSA) as a standard. […]

| IC50 | SMILES |
| --- | --- |
| 0.77 nM | Cc1ccccc1C(=O)c1cnc(NC2CCN(S(=O)(=O)c3cccs3)CC2)s1 [Example 41, {2-[1-(Thiophene-2-sulfonyl)-piperidin-4-ylamino]-thiazol-5-yl}-o-tolyl-methanone] |
| 0.85 nM | Cc1ccccc1C(=O)c1cnc(NCC2CCN(S(=O)(=O)N(C)C)CC2)s1 [Example 18, 4-{[5-(2-Methyl-benzoyl)-thiazol-2-ylamino]-methyl}-piperidine-1-sulfonic acid dimethylamide] |
| 0.75 nM | CCc1ccccc1C(=O)c1cnc(NC2CCN(S(=O)(=O)c3cccs3)CC2)s1 [Example 32, (2-Ethyl-phenyl)-{2-[1-(thiophene-2-sulfonyl)-piperidin-4-ylamino]-thiazol-5-yl}-methanone] |
